Measured values: US7183252B2, “Indole peptidomimetics as thrombin receptor antagonists” (Ortho-McNeil Pharmaceutical, Inc., priority 1999, dated 2007)
Where two headings read alike, the source gives them in different places.

Columns and labels:
[1] = biological target: T1, thrombin receptor (PAR-1) (Homo sapiens, UniProt P25116); experiment: In vitro thrombin receptor binding assay (CHRF membranes); conditions: tritiated 721-40 radioligand, read-out: Bndg IC50 (Thrombin receptor binding)
T1 construct: CHRF membranes (Jones, Biochim. Biophys. Acta 1992, 1136, 272) are thawed from −70° C; endogenous in cells; host or cells: CHRF cell membranes
T1 sequence (P25116 22-425): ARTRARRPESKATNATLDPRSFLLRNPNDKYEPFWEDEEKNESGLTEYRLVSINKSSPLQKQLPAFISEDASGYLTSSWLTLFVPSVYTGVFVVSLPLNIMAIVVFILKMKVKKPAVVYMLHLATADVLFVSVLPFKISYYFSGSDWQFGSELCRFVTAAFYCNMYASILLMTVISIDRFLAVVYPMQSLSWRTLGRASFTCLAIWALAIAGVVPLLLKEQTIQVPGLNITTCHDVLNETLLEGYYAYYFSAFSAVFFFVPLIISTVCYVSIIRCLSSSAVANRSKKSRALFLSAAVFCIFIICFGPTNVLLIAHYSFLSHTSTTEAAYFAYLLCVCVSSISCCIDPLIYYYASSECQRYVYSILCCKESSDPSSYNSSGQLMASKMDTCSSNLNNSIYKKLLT
Procedure, shortened: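 CHRF cell membranes incubated 30 min with tritiated peptide agonist 721–40 and compound at 3.7 μg/mL final (0.6% DMSO) in HEPES/MgCl2/BSA buffer. Nonspecific binding defined with unlabeled 721–40; bound radioactivity counted after filtration onto PEI-treated filters.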

gel-filtered platelets = experiment: In vitro inhibition of thrombin-induced gel-filtered platelet aggregation; format: cell-based; conditions: human gel-filtered platelets, agonist thrombin 50 μL of 1 unit/mL, read-out: Thrmb IC50 (Thrombin-induced aggregation of gel-filtered platelets)
Procedure, shortened: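 Gel-filtered (Sepharose 2B) human platelets from citrated PRP, 2×10^7 per sample, in Tyrode's buffer pH 7.4 with BSA and added calcium, preincubated with test compound. Aggregation induced by thrombin (50 μL of 1 unit/mL) and followed as light transmission over 3 min. Inhibition is taken relative to control-treated platelets.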

Compound: CCCCCCCCNC(=O)[C@H](CCCNC(=N)N)NC(=O)[C@H](Cc1ccc(F)c(F)c1)NC(=O)Nc1ccc2c(CN3CCCCC3)cn(Cc3ccc(F)cc3)c2c1 [Compound 73]
- IC50 [1]: 7500 nM
- IC50 (gel-filtered platelets; Platelet): 2400 nM

Compound: Cc1ccccc1Cn1cc(CN2CCCC2)c2ccc(NC(=O)N[C@@H](Cc3ccc(Cl)cc3)C(=O)N[C@@H](CCCNC(=N)N)C(=O)NCc3ccccc3)cc21 [Compound 48]
- IC50 [1]: 7600 nM
- IC50 (gel-filtered platelets; Platelet): 500 nM

Compound: NCC[C@H](NC(=O)[C@H](CCc1ccccc1)NC(=O)Nc1ccc2c(CN3CCCC3)cn(Cc3c(Cl)cccc3Cl)c2c1)C(=O)NCc1ccccc1 [Compound 128]
- IC50 [1]: 3400 nM
- IC50 (gel-filtered platelets; Platelet): 18800 nM

Compound: CC(=N)NCCC[C@H](NC(=O)[C@H](Cc1ccc(F)c(F)c1)NC(=O)Nc1ccc2c(CN3CCCC3)cn(Cc3c(Cl)cccc3Cl)c2c1)C(=O)NCc1ccccc1 [Compound 95]
- IC50 [1]: 370 nM
- IC50 (gel-filtered platelets; Platelet): 410 nM

Compound: NCCNC(=O)[C@H](Cc1c[nH]cn1)NC(=O)[C@H](Cc1ccc(Cl)cc1)NC(=O)Nc1ccc2c(CN3CCCC3)cn(Cc3c(Cl)cccc3Cl)c2c1 [Compound 134]
- IC50 [1]: 1200 nM
- IC50 (gel-filtered platelets; Platelet): 950 nM

Compound: NCC[C@H](NC(=O)[C@H](Cc1ccc2ccccc2c1)NC(=O)Nc1ccc2c(CN3CCCC3)cn(Cc3c(Cl)cccc3Cl)c2c1)C(=O)NCc1ccccc1 [Compound 129]
- IC50 [1]: 2500 nM
- IC50 (gel-filtered platelets; Platelet): 860 nM

Compound: NC[C@H](NC(=O)[C@H](Cc1ccc(Cl)cc1)NC(=O)Nc1ccc2c(CN3CCCC3)cn(Cc3c(Cl)cccc3Cl)c2c1)C(=O)NCc1ccccc1 [Compound 79]
- IC50 [1]: 170 nM
- IC50 (gel-filtered platelets; Platelet): 1300 nM

Compound: COc1ccc(C[C@H](NC(=O)Nc2ccc3c(c2)c(CN2CCCCC2)cn3Cc2ccc(F)cc2)C(=O)N[C@@H](CCCNC(=N)N)C(=O)NCc2ccccc2)cc1 [Compound 162]
- IC50 [1]: 5300 nM
- IC50 (gel-filtered platelets; Platelet): 13000 nM

Compound: CCN(CC)Cc1cn(Cc2cccc(C)c2)c2cc(NC(=O)N[C@@H](Cc3ccc(OC(C)C)cc3)C(=O)N[C@@H](CCCNC(=N)N)C(=O)NCc3ccccc3)ccc12 [Compound 43]
- IC50 [1]: 5000 nM
- IC50 (gel-filtered platelets; Platelet): 33500 nM

Compound: N=C(N)NCCC[C@H](NC(=O)[C@H](Cc1ccccc1Cl)NC(=O)Nc1ccc2c(CN3CCCCC3)cn(Cc3c(Cl)cccc3Cl)c2c1)C(=O)NCc1ccccc1 [Compound 86]
- IC50 [1]: 510 nM
- IC50 (gel-filtered platelets; Platelet): 2900 nM

Compound: COc1ccc(C[C@H](NC(=O)Nc2ccc3c(CN4CCCC4)cn(Cc4ccc(F)c(F)c4)c3c2)C(=O)N[C@@H](CCCNC(=N)N)C(=O)NCc2ccccc2)cc1 [Compound 21]
- IC50 [1]: 1100 nM
- IC50 (gel-filtered platelets; Platelet): 3200 nM

Compound: COc1ccc(C[C@H](NC(=O)Nc2ccc3c(CN4CCCC4)cn(Cc4cccc(OC)c4)c3c2)C(=O)N[C@@H](CCCNC(=N)N)C(=O)NCc2ccccc2)cc1 [Compound 16]
- IC50 [1]: 11500 nM
- IC50 (gel-filtered platelets; Platelet): 25800 nM

Compound: N=C(N)NCCC[C@@H](NC(=O)[C@H](Cc1ccc(F)c(F)c1)NC(=O)Nc1ccc2c(CN3CCCC3)cn(Cc3c(Cl)cccc3Cl)c2c1)C(=O)NCc1ccccc1 [Compound 69]
- IC50 [1]: 620 nM
- IC50 (gel-filtered platelets): 310 nM

Compound: CSCC[C@H](NC(=O)[C@H](Cc1ccc(F)c(F)c1)NC(=O)Nc1ccc2c(CN3CCCC3)cn(Cc3c(Cl)cccc3Cl)c2c1)C(=O)NCc1ccccc1 [Compound 104]
- IC50 [1]: 11200 nM
- IC50 (gel-filtered platelets; Platelet): 530 nM

Compound: N=C(N)NCCC[C@H](NC(=O)[C@@H](NC(=O)Nc1ccc2c(CN3CCCC3)cn(Cc3c(Cl)cccc3Cl)c2c1)C(c1ccccc1)c1ccccc1)C(=O)NCc1ccccc1 [Compound 56]
- IC50 [1]: 11400 nM
- IC50 (gel-filtered platelets; Platelet): 3800 nM

Compound: Cc1ccccc1Cn1cc(CN2CCCC2)c2ccc(NC(=O)N[C@@H](Cc3c(F)c(F)c(F)c(F)c3F)C(=O)N[C@@H](CCCNC(=N)N)C(=O)NCc3ccccc3)cc21 [Compound 50]
- IC50 [1]: 7600 nM
- IC50 (gel-filtered platelets; Platelet): 800 nM

Compound: COc1ccc(C[C@H](NC(=O)Nc2ccc3c(CN4CCCC4)cn(Cc4ccc(C)cc4)c3c2)C(=O)N[C@@H](CCCN=C(N)N)C(=O)NCc2ccccc2)cc1 [Compound 2]
- IC50 [1]: 33600 nM
- IC50 (gel-filtered platelets; Platelet): 7800 nM

Compound: CN(C)CCC[C@H](NC(=O)[C@H](Cc1ccc(F)c(F)c1)NC(=O)Nc1ccc2c(CN3CCCC3)cn(Cc3c(Cl)cccc3Cl)c2c1)C(=O)NCc1ccccc1 [Compound 100]
- IC50 [1]: 1300 nM
- IC50 (gel-filtered platelets; Platelet): 600 nM

Compound: CC(=N)NCC[C@H](NC(=O)[C@H](Cc1ccc(F)c(F)c1)NC(=O)Nc1ccc2c(CN3CCCC3)cn(Cc3c(Cl)cccc3Cl)c2c1)C(=O)NCc1ccccc1 [Compound 118]
- IC50 [1]: 430 nM
- IC50 (gel-filtered platelets; Platelet): 280 nM

Compound: Cc1ccccc1Cn1cc(CN2CCCC2)c2ccc(NC(=O)N[C@@H](Cc3ccc(OCc4ccccc4)cc3)C(=O)N[C@@H](CCCN=C(N)N)C(=O)NCc3ccccc3)cc21 [Compound 36]
- IC50 [1]: 16700 nM
- IC50 (gel-filtered platelets; Platelet): 6800 nM

Compound: NCCC[C@H](NC(=O)[C@H](Cc1ccc(F)c(F)c1)NC(=O)Nc1ccc2c(CN3CCCC3)cn(Cc3c(Cl)cccc3Cl)c2c1)C(=O)N1CCCCC1 [Compound 115]
- IC50 [1]: 370 nM
- IC50 (gel-filtered platelets; Platelet): 2700 nM

Compound: Cc1ccccc1Cn1cc(CN2CCCC2)c2ccc(NC(=O)N[C@@H](Cc3ccc(F)c(F)c3)C(=O)N[C@@H](CCCNC(=N)N)C(=O)NCCc3ccccc3)cc21 [Compound 57]
- IC50 [1]: 300 nM
- IC50 (gel-filtered platelets; Platelet): 1800 nM

Compound: Cc1coc(CNC(=O)[C@H](CCN)NC(=O)[C@H](Cc2ccc(F)c(F)c2)NC(=O)Nc2ccc3c(CN4CCCC4)cn(Cc4c(Cl)cccc4Cl)c3c2)c1 [Compound 159]
- IC50 [1]: 700 nM
- IC50 (gel-filtered platelets): 430 nM

Compound: NCCC[C@H](NC(=O)[C@H](Cc1ccc(F)c(F)c1)NC(=O)Nc1ccc2c(CN3CCCC3)cn(Cc3c(Cl)cccc3Cl)c2c1)C(=O)Nc1ccccc1 [Compound 127]
- IC50 [1]: 2400 nM
- IC50 (gel-filtered platelets; Platelet): 930 nM

Compound: Cc1ccccc1Cn1cc(CN2CCCC2)c2ccc(NC(=O)N[C@@H](Cc3cccc(C(F)(F)F)c3)C(=O)N[C@@H](CCCNC(=N)N)C(=O)NCc3ccccc3)cc21 [Compound 54]
- IC50 [1]: 16000 nM
- IC50 (gel-filtered platelets; Platelet): 500 nM

Compound: N=C(N)NCCC[C@H](NC(=O)CCNC(=O)[C@H](Cc1ccc(F)c(F)c1)NC(=O)Nc1ccc2c(CN3CCCC3)cn(Cc3c(Cl)cccc3Cl)c2c1)C(=O)NCc1ccccc1 [Compound 108]
- IC50 [1]: 2600 nM
- IC50 (gel-filtered platelets; Platelet): 3700 nM

Compound: NCC[C@H](NC(=O)[C@H](CC1CCCCC1)NC(=O)Nc1ccc2c(CN3CCCC3)cn(Cc3c(Cl)cccc3Cl)c2c1)C(=O)NCc1ccccc1 [Compound 155]
- IC50 [1]: 13500 nM
- IC50 (gel-filtered platelets; Platelet): 11000 nM

Compound: Nc1ccc(C[C@H](NC(=O)[C@H](Cc2ccc(F)c(F)c2)NC(=O)Nc2ccc3c(CN4CCCC4)cn(Cc4c(Cl)cccc4Cl)c3c2)C(=O)NCc2ccccc2)cc1 [Compound 106]
- IC50 [1]: 3300 nM
- IC50 (gel-filtered platelets; Platelet): 1100 nM

Compound: NCCC[C@H](NC(=O)[C@H](Cc1ccc(F)c(F)c1)NC(=O)Nc1ccc2c(CN3CCCC3)cn(Cc3c(Cl)cccc3Cl)c2c1)C(=O)NCc1ccccn1 [Compound 117]
- IC50 [1]: 1000 nM
- IC50 (gel-filtered platelets; Platelet): 4100 nM

Compound: N=C(N)NCCC[C@H](NC(=O)[C@H](Cc1ccc(F)c(F)c1)NC(=O)Nc1ccc2c(CN3CCCC3)c(-c3ccccc3)n(Cc3ccc(F)cc3)c2c1)C(=O)NCc1ccc(F)cc1 [Compound 171, L-Argininamide, 3,4-difluoro-N-[[[1-[(4-fluorophenyl)methyl]-2-phenyl-3-(1-pyrrolidinylmethyl)-1H-indol-6-yl]amino]carbonyl]-L-phenylalanyl-N-[(4-fluorophenyl)methyl]-]
- IC50 [1]: 100 nM
- IC50 (gel-filtered platelets; Platelet): 1000 nM

Compound: NCC[C@H](NC(=O)[C@H](Cc1ccc(Cl)cc1)NC(=O)Nc1ccc2c(CN3CCCC3)cn(Cc3c(Cl)cccc3Cl)c2c1)C(=O)NCc1ccccc1 [Compound 78]
- IC50 [1]: 1500 nM
- IC50 (gel-filtered platelets; Platelet): 1300 nM

Compound: NCC[C@H](NC(=O)[C@H](Cc1ccc(F)c(F)c1)NC(=O)Nc1cccc2c1c(CN1CCCC1)cn2Cc1c(Cl)cccc1Cl)C(=O)NCc1ccccc1 [Compound 165]
- IC50 [1]: 49600 nM
- IC50 (gel-filtered platelets; Platelet): 4800 nM

Compound: COC(=O)c1ccc(Cn2cc(CN3CCCCC3)c3ccc(NC(=O)N[C@@H](Cc4ccc(OC)cc4)C(=O)N[C@@H](CCCN=C(N)N)C(=O)NCC4CCCCC4)cc32)cc1 [Compound 10]
- IC50 [1]: 4800 nM
- IC50 (gel-filtered platelets; Platelet): > 10000 nM

Compound: N=C(N)NCCC[C@H](NC(=O)[C@H](Cc1ccccc1F)NC(=O)Nc1ccc2c(CN3CCCC3)cn(Cc3c(Cl)cccc3Cl)c2c1)C(=O)NCc1ccccc1 [Compound 51]
- IC50 [1]: 800 nM
- IC50 (gel-filtered platelets; Platelet): 680 nM

Compound: NCCNC(=O)[C@H](CO)NC(=O)[C@H](Cc1ccc(F)c(F)c1)NC(=O)Nc1ccc2c(CN3CCCC3)cn(Cc3c(Cl)cccc3Cl)c2c1 [Compound 150]
- IC50 [1]: 100 nM
- IC50 (gel-filtered platelets; Platelet): 1400 nM

Compound: NC(=O)NCCC[C@H](NC(=O)[C@H](Cc1cccc(F)c1)NC(=O)Nc1ccc2c(CN3CCCC3)cn(Cc3c(Cl)cccc3Cl)c2c1)C(=O)NCc1ccccc1 [Compound 77]
- IC50 [1]: 620 nM
- IC50 (gel-filtered platelets; Platelet): 29500 nM

Compound: NCCNC(=O)CCNC(=O)[C@H](Cc1ccc(Cl)cc1)NC(=O)Nc1ccc2c(CN3CCCC3)cn(Cc3c(Cl)cccc3Cl)c2c1 [Compound 146]
- IC50 [1]: 2800 nM
- IC50 (gel-filtered platelets; Platelet): 11100 nM

Compound: N=C(N)NCCC[C@H](NC(=O)[C@@H](Cc1ccc(F)c(F)c1)NC(=O)Nc1ccc2c(CN3CCCC3)cn(Cc3c(Cl)cccc3Cl)c2c1)C(=O)NCc1ccccc1 [Compound 84]
- IC50 [1]: 3200 nM
- IC50 (gel-filtered platelets): 14900 nM
